Test results reported in US20230024302A1, “2,3,5-TRISUBSTITUTED PYRAZOLO[1,5-A]PYRIMIDINE COMPOUNDS” (Arcus Biosciences, Inc., priority 2019, published 2023).
Where two headings read alike, the source gives them in different places.

Tests used:
PI3Kγ (p120γ) = molecular target: T1, PI3Kγ (p120γ) (Homo sapiens, UniProt P48736); test: Inhibition of PI3K kinase activity (ADP Glo), PI3Kγ; details: read-out: biochemical potency (PI3Kγ IC50)
T1 construct: purchased Promega V1761
Outline: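 Recombinant p120γ (8 nM, 2× stock) was preincubated with compound for 1 h at rt in HEPES pH 7.4, NaCl, MgCl2 and 0.05% BSA. Reaction was started with PIP2 (0.1 mg/ml, 2×) and ATP (50 μM, 2×) and ran 60 min at rt. ADP formed was read by ADP-Glo luminescence, and IC50 came from a 4-parameter fit.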

PI3Kγ = molecular target: T2, PI3Kγ (Homo sapiens, UniProt P48736); test: PI3Kγ cellular assay in THP-1 cells (AKT pS473 AlphaLISA); type: cell-based
T2 construct: host or cells: THP-1
Outline: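 Serum-starved THP-1 cells (1.8×10^5/well, serum-free DMEM) treated with compounds from 4 nM to 30 μM in 2% DMSO, then stimulated and lysed.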

[1] = Table 1, rhMCP-1 stimulated AKT pS473, read-out: cellular potency (PI3Kγ IC50)
[2] = Table 6, rhMCP-1 stimulated AKT pS473, read-out: cellular potency (PI3Kγ IC50)
[3] = Table 2, rhMCP-1 stimulated AKT pS473, read-out: cellular potency (PI3Kγ IC50)
[4] = Table 3, rhMCP-1 stimulated AKT pS473, read-out: cellular potency (PI3Kγ IC50)

T2 sequence (P48736 whole entry): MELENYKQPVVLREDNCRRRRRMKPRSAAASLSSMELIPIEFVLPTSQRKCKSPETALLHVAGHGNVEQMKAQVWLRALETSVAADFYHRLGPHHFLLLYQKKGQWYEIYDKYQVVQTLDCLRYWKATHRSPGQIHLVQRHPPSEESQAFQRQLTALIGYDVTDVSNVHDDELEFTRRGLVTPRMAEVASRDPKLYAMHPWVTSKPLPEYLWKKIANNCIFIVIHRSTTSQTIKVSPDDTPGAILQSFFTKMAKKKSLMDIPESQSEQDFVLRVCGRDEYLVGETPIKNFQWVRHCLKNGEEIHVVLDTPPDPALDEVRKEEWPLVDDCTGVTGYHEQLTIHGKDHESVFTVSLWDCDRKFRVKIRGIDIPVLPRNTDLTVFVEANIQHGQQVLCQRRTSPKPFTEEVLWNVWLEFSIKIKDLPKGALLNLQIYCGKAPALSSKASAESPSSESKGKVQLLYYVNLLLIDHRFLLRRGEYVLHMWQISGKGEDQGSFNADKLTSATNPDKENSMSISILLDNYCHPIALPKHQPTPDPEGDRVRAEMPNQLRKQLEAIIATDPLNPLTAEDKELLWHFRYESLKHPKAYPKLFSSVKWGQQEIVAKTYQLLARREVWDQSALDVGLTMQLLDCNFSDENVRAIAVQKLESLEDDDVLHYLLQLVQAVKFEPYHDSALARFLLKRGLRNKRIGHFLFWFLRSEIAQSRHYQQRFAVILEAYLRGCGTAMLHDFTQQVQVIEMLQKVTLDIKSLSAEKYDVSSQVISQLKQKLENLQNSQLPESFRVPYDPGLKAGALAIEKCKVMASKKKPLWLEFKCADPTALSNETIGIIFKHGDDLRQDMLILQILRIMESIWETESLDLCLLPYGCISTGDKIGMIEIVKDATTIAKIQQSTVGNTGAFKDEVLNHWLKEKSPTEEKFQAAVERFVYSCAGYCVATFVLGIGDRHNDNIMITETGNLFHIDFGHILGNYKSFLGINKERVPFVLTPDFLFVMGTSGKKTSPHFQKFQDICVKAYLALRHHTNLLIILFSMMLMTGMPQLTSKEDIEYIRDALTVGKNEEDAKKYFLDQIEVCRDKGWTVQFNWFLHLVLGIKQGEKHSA
T1 sequence (P48736 whole entry): as above

C[C@H](CO)NC(=O)c1c(N)nn2ccc(-c3cc4c(c(NS(C)(=O)=O)c3)C(=O)N([C@@H](C)C(F)(F)F)C4)nc12 [Example 118, 2-Amino-N-[(2R)-1-hydroxypropan-2-yl]-5-{7-methanesulfonamido-1-oxo-2-[(2S)-1,1,1-trifluoropropan-2-yl]-2,3-dihydro-1H-isoindol-5-yl}pyrazolo[1,5-a]pyrimidine-3-carboxamide]
IC50 (PI3Kγ (p120γ); Table 1, p120γ): < 100 nM
IC50 (PI3Kγ; [1]): < 100 nM

C[C@H](N1Cc2cc(-c3ccn4nc(N)c(C(=O)N[C@@H](CO)C5CC5)c4n3)cc(NS(C)(=O)=O)c2C1=O)C(F)(F)F [Example 120, 2-Amino-N-((R)-1-cyclopropyl-2-hydroxyethyl)-5-(7-(methylsulfonamido)-1-oxo-2-((S)-1,1,1-trifluoropropan-2-yl)isoindolin-5-yl)pyrazolo[1,5-a]pyrimidine-3-carboxamide]
IC50 (PI3Kγ (p120γ); Table 1, p120γ): < 100 nM
IC50 (PI3Kγ; [1]): < 100 nM

Cc1cc(-c2ccn3nc(N)c(C(=O)N[C@H]4CC[C@](C)(O)CC4)c3n2)cc2c1C(=O)N([C@@H](C)C1CC1)C2 [Example 7, 2-Amino-5-{2-[(1S)-1-cyclopropylethyl]-7-methyl-1-oxo-2,3-dihydro-1H-isoindol-5-yl}-N-[trans-4-hydroxy-4-methylcyclohexyl]pyrazolo[1,5-a]pyrimidine-3-carboxamide]
IC50 (PI3Kγ (p120γ); Table 1, p120γ): < 100 nM
IC50 (PI3Kγ; [1]): < 100 nM

C[C@@H](C1CC1)N1Cc2cc(-c3ccn4nc(N)c(C(=O)N[C@@H]5CNC[C@H]5O)c4n3)cc(OC(F)(F)F)c2C1=O [Example 418]
IC50 (PI3Kγ (p120γ); Table 6, p120γ): < 100 nM
IC50 (PI3Kγ; [2]): > 1000 nM

Cc1cc(-c2ccn3nc(N)c(C(=O)NC4CC4)c3n2)cc2c1C(=O)N([C@H]1CCC[C@H](O)C1)C2 [Example 327]
IC50 (PI3Kγ (p120γ); Table 2, p120γ): < 100 nM
IC50 (PI3Kγ; [3]): 100 to 1000 nM

CCS(=O)(=O)Nc1cc(-c2ccn3nc(N)c(C(=O)NC4CC4)c3n2)cc2c1C(=O)N([C@@H](C)C1CC1)C2 [Example 110, 2-Amino-N-cyclopropyl-5-{2-[(1S)-1-cyclopropylethyl]-7-ethanesulfonamido-1-oxo-2,3-dihydro-1H-isoindol-5-yl}pyrazolo[1,5-a]pyrimidine-3-carboxamide]
IC50 (PI3Kγ (p120γ); Table 1, p120γ): < 100 nM
IC50 (PI3Kγ; [1]): < 100 nM

Cc1cc(-c2ccn3nc(N)c(C(=O)NC4CC4)c3n2)cc2c1C(=O)N([C@H]1CC[C@@H](O)C1)C2 [Example 322]
IC50 (PI3Kγ (p120γ); Table 2, p120γ): < 100 nM
IC50 (PI3Kγ; [3]): 100 to 1000 nM

CC[C@@H](CO)N1Cc2cc(-c3ccn4nc(N)c(C(=O)NC5CC5)c4n3)cc(C)c2C1=O [Example 309]
IC50 (PI3Kγ (p120γ); Table 2, p120γ): < 100 nM
IC50 (PI3Kγ; [3]): 100 to 1000 nM

C[C@H](N1Cc2cc(-c3ccn4nc(N)c(C(=O)N[C@@H](CO)C5CC5)c4n3)cc(N3CC[C@@H](O)C3)c2C1=O)C(F)(F)F [Example 434]
IC50 (PI3Kγ (p120γ); Table 6, p120γ): < 100 nM
IC50 (PI3Kγ; [2]): 100 to 1000 nM

Cc1cc(-c2ccn3nc(N)c(C(=O)N[C@@H]4c5ccccc5C[C@H]4O)c3n2)cc2c1C(=O)N([C@@H](C)C1CC1)C2 [Example 198]
IC50 (PI3Kγ (p120γ); Table 2, p120γ): < 100 nM
IC50 (PI3Kγ; [3]): 100 to 1000 nM

C[C@@H](C1CC1)N1Cc2cc(-c3ccn4nc(N)c(C(=O)Nc5cccnc5)c4n3)cc(C(F)(F)F)c2C1=O [Example 70, (S)-2-Amino-5-(2-(1-cyclopropylethyl)-1-oxo-7-(trifluoromethyl)isoindolin-5-yl)-N-(pyridin-3-yl)pyrazolo[1,5-a]pyrimidine-3-carboxamide]
IC50 (PI3Kγ (p120γ); Table 1, p120γ): < 100 nM
IC50 (PI3Kγ; [1]): < 100 nM

Cc1c(NC(=O)c2c(N)nn3ccc(-c4cc5c(c(NS(C)(=O)=O)c4)C(=O)N([C@@H](C)C4CC4)C5)nc23)cnn1C [Example 108, 2-Amino-5-{2-[(1S)-1-cyclopropylethyl]-7-methanesulfonamido-1-oxo-2,3-dihydro-1H-isoindol-5-yl}-N-(1,5-dimethyl-1H-pyrazol-4-yl)pyrazolo[1,5-a]pyrimidine-3-carboxamide]
IC50 (PI3Kγ (p120γ); Table 1, p120γ): < 100 nM
IC50 (PI3Kγ; [1]): < 100 nM

C[C@@H](C1CC1)N1Cc2cc(-c3ccn4nc(N)c(C(=O)N[C@H]5CC[C@H](C6(O)CC6)CC5)c4n3)cc(C(F)(F)F)c2C1=O [Example 62, 2-Amino-5-(2-((S)-1-cyclopropylethyl)-1-oxo-7-(trifluoromethyl)isoindolin-5-yl)-N-(trans-4-(1-hydroxycyclopropyl)cyclohexyl)pyrazolo[1,5-a]pyrimidine-3-carboxamide]
IC50 (PI3Kγ (p120γ); Table 1, p120γ): < 100 nM
IC50 (PI3Kγ; [1]): < 100 nM

C[C@@H](C1CC1)N1Cc2cc(-c3ccn4nc(N)c(C(=O)N[C@H]5CNC(=O)C5)c4n3)cc(C(F)(F)F)c2C1=O [Example 64, 2-Amino-5-{2-[(1S)-1-cyclopropylethyl]-1-oxo-7-(trifluoromethyl)-2,3-dihydro-1H-isoindol-5-yl}-N-[(3R)-5-oxopyrrolidin-3-yl]pyrazolo[1,5-a]pyrimidine-3-carboxamide]
IC50 (PI3Kγ (p120γ); Table 1, p120γ): < 100 nM
IC50 (PI3Kγ; [1]): < 100 nM

C[C@@H](C1CC1)N1Cc2cc(-c3ccn4nc(N)c(C(=O)NC5CC5)c4n3)cc(N3CC(O)C3)c2C1=O [Example 433]
IC50 (PI3Kγ (p120γ); Table 6, p120γ): < 100 nM
IC50 (PI3Kγ; [2]): 100 to 1000 nM

CO[C@H]1C[C@H](NC(=O)c2c(N)nn3ccc(-c4cc(C)c5c(c4)CN([C@@H](C)C4CC4)C5=O)nc23)C1 [Example 182]
IC50 (PI3Kγ (p120γ); Table 2, p120γ): < 100 nM
IC50 (PI3Kγ; [3]): 100 to 1000 nM

C[C@@H](C1CC1)N1Cc2cc(-c3ccn4nc(N)c(C(=O)NC(C)(C)C(N)=O)c4n3)cc(NS(C)(=O)=O)c2C1=O [Example 373]
IC50 (PI3Kγ (p120γ)): < 100 nM
IC50 (PI3Kγ; AKT pS473, read-out: cellular potency (PI3Kγ IC50)): 100 to 1000 nM

CC(C)[C@H](CO)NC(=O)c1c(N)nn2ccc(-c3cc4c(c(OC(F)(F)F)c3)C(=O)N([C@@H](C)C3CC3)C4)nc12 [Example 25, 2-Amino-5-{2-[(1S)-1-cyclopropylethyl]-1-oxo-7-(trifluoromethoxy)-2,3-dihydro-1H-isoindol-5-yl}-N-[(2R)-1-hydroxy-3-methylbutan-2-yl]pyrazolo[1,5-a]pyrimidine-3-carboxamide]
IC50 (PI3Kγ (p120γ); Table 1, p120γ): < 100 nM
IC50 (PI3Kγ; [1]): < 100 nM

C[C@@H](C1CC1)N1Cc2cc(-c3ccn4nc(N)c(C(=O)Nc5ccccc5)c4n3)cc(OC(F)(F)F)c2C1=O [Example 427]
IC50 (PI3Kγ (p120γ); Table 6, p120γ): < 100 nM
IC50 (PI3Kγ; [2]): > 1000 nM

C[C@@H](C1CC1)N1Cc2cc(-c3ccn4nc(N)c(C(=O)Nc5ccc(C(C)(C)O)nc5)c4n3)cc(NS(C)(=O)=O)c2C1=O [Example 103, 2-Amino-5-{2-[(1S)-1-cyclopropylethyl]-7-methanesulfonamido-1-oxo-2,3-dihydro-1H-isoindol-5-yl}-N-[6-(2-hydroxypropan-2-yl)pyridin-3-yl]pyrazolo[1,5-a]pyrimidine-3-carboxamide]
IC50 (PI3Kγ (p120γ); Table 1, p120γ): < 100 nM
IC50 (PI3Kγ; [1]): < 100 nM

CC[C@H](C)N1Cc2cc(-c3ccn4nc(N)c(C(=O)NC5CC5)c4n3)cc(C)c2C1=O [Example 302]
IC50 (PI3Kγ (p120γ); Table 2, p120γ): < 100 nM
IC50 (PI3Kγ; [3]): 100 to 1000 nM

CS(=O)(=O)Nc1cc(-c2ccn3nc(N)c(C(=O)NC4CC4)c3n2)cc2c1C(=O)N([C@@H](C1CC1)C(F)(F)F)C2 [Example 128, 2-Amino-N-cyclopropyl-5-{2-[(1S)-1-cyclopropyl-2,2,2-trifluoroethyl]-7-methanesulfonamido-1-oxo-2,3-dihydro-1H-isoindol-5-yl}pyrazolo[1,5-a]pyrimidine-3-carboxamide]
IC50 (PI3Kγ (p120γ); Table 1, p120γ): < 100 nM
IC50 (PI3Kγ; [1]): < 100 nM

Cc1cc(-c2ccn3nc(N)c(C(=O)NC4CCC4)c3n2)cc2c1C(=O)N([C@@H](C)C1CC1)C2 [Example 189]
IC50 (PI3Kγ (p120γ); Table 2, p120γ): < 100 nM
IC50 (PI3Kγ; [3]): 100 to 1000 nM

C[C@H](N1Cc2cc(-c3ccn4nc(N)c(C(=O)NC5CC5)c4n3)cc(NS(C)(=O)=O)c2C1=O)C(F)(F)F [Example 115, 2-Amino-N-cyclopropyl-5-{7-methanesulfonamido-1-oxo-2-[(2S)-1,1,1-trifluoropropan-2-yl]-2,3-dihydro-1H-isoindol-5-yl}pyrazolo[1,5-a]pyrimidine-3-carboxamide]
IC50 (PI3Kγ (p120γ); Table 1, p120γ): < 100 nM
IC50 (PI3Kγ; [1]): < 100 nM

C[C@@H](C1CC1)N1Cc2cc(-c3ccn4nc(N)c(C(=O)N[C@H]5CCC[C@@H](N)C5)c4n3)cc(C(F)(F)F)c2C1=O [Example 366]
IC50 (PI3Kγ (p120γ); Table 3, p120γ): < 100 nM
IC50 (PI3Kγ; [4]): > 1000 nM

Cc1cc(-c2ccn3nc(N)c(C(=O)N[C@@H]4COC[C@H]4O)c3n2)cc2c1C(=O)N([C@@H](C)C1CC1)C2 [Example 199]
IC50 (PI3Kγ (p120γ); Table 2, p120γ): < 100 nM
IC50 (PI3Kγ; [3]): 100 to 1000 nM

C[C@H](CO)NC(=O)c1c(N)nn2ccc(-c3cc4c(c(N5CC(F)(F)C5)c3)C(=O)N([C@@H](C)C3CC3)C4)nc12 [Example 435]
IC50 (PI3Kγ (p120γ); Table 6, p120γ): < 100 nM
IC50 (PI3Kγ; [2]): 100 to 1000 nM

COCCS(=O)(=O)Nc1cc(-c2ccn3nc(N)c(C(=O)NC4CC4)c3n2)cc2c1C(=O)N([C@@H](C)C1CC1)C2 [Example 113, 2-Amino-N-cyclopropyl-5-{2-[(1S)-1-cyclopropylethyl]-7-(2-methoxyethanesulfonamido)-1-oxo-2,3-dihydro-1H-isoindol-5-yl}pyrazolo[1,5-a]pyrimidine-3-carboxamide]
IC50 (PI3Kγ (p120γ); Table 1, p120γ): < 100 nM
IC50 (PI3Kγ; [1]): < 100 nM

C[C@@H](C1CC1)N1Cc2cc(-c3ccn4nc(N)c(C(=O)NC5CC5)c4n3)cc(C3CC3)c2C1=O [Example 165, 2-Amino-N-cyclopropyl-5-{7-cyclopropyl-2-[(1S)-1-cyclopropylethyl]-1-oxo-2,3-dihydro-1H-isoindol-5-yl}pyrazolo[1,5-a]pyrimidine-3-carboxamide]
IC50 (PI3Kγ (p120γ); Table 1, p120γ): < 100 nM
IC50 (PI3Kγ; [1]): < 100 nM

C[C@@H](C1CC1)N1Cc2cc(-c3ccn4nc(N)c(C(=O)N[C@@H](CO)C5CC5)c4n3)cc(C(F)(F)F)c2C1=O [Example 353]
IC50 (PI3Kγ (p120γ); Table 3, p120γ): < 100 nM
IC50 (PI3Kγ; [4]): 100 to 1000 nM
